Measured values as given in ChEMBL document CHEMBL3734721 (J Med Chem, 2015).

Columns and labels:
D(1A) dopamine receptor = D(1A) dopamine receptor (Homo sapiens, UniProt P21728); assay: Agonist activity at human wild-type D1 receptor expressed in CHO cells assessed as cAMP level by HTRF assay; format: functional, cell-based
Cytochrome P450 2C19 = Cytochrome P450 2C19 (Homo sapiens, UniProt P33261); assay: Inhibition of human CYP2C19 by LC-MS analysis; format: ADME
[1] = Fraction unbound in mouse plasma at 5 uM after 4.5 hrs by LC-MS/MS analysis; format: ADME, cell-free
[2] = biological target: 5-hydroxytryptamine receptor 2B (Homo sapiens, UniProt P41595); assay: Agonist activity at human 5-HT2B receptor expressed in CHO-K1 cells assessed as calcium level by FDSS assay; format: functional, cell-based
Sequence of 5-hydroxytryptamine receptor 2B (P41595 whole entry): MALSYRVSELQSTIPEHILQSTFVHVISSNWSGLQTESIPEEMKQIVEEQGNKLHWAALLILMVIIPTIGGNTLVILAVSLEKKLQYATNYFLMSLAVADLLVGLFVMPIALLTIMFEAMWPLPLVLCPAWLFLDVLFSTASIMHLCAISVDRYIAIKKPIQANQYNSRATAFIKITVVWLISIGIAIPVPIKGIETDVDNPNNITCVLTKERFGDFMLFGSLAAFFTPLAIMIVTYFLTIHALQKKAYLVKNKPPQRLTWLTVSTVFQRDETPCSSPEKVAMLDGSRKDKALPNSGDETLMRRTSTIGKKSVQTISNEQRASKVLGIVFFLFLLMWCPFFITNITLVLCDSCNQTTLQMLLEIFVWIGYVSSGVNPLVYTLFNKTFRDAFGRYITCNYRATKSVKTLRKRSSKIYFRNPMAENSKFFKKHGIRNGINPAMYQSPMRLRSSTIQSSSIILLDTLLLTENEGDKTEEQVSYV

[3] = biological target: Muscarinic acetylcholine receptor M3 (Homo sapiens, UniProt P20309); assay: Antagonist activity at human wild-type M3 receptor expressed in CHO-K1 cells assessed as acetylcholine-induced calcium by FDSS assay; format: functional, cell-based
Sequence of Muscarinic acetylcholine receptor M3 (P20309 whole entry): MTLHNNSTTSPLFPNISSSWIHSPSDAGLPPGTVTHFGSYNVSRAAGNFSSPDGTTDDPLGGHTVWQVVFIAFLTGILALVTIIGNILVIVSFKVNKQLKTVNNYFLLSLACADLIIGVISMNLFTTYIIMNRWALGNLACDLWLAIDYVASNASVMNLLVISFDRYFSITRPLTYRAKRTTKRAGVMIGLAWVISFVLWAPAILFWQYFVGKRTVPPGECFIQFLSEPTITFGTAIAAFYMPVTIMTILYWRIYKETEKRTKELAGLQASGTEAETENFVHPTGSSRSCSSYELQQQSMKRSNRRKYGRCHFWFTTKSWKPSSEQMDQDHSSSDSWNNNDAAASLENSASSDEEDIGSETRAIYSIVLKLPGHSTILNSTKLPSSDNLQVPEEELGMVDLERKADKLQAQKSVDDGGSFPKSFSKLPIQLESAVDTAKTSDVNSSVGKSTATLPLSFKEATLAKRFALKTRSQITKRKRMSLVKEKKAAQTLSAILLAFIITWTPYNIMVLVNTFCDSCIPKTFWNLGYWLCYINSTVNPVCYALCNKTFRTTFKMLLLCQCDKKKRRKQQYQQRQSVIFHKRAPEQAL

Mu-type opioid receptor = Mu-type opioid receptor (Homo sapiens, UniProt P35372); assay: Antagonist activity at human wild-type opioid-mu receptor expressed in CHO-K1 cells assessed as DAMGO-induced cAMP by HTRF assay; format: functional, cell-based
Sequence of Mu-type opioid receptor (P35372 whole entry): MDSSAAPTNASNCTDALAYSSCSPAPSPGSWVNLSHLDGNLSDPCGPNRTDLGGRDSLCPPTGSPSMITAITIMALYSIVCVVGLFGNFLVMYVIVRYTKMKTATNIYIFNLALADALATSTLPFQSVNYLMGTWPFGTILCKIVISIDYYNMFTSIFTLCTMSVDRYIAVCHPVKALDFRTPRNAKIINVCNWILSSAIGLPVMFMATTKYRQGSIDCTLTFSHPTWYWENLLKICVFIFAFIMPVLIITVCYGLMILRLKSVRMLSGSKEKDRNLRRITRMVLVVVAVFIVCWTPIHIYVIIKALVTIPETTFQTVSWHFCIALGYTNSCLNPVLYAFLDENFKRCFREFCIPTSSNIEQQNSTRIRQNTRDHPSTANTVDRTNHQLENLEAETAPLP

[4] = biological target: T1, Cholecystokinin receptor type A (Homo sapiens, UniProt P32238); assay: Agonist activity at human wild-type CCKA receptor expressed in CHO-K1 cells assessed as calcium level by FDSS assay; format: functional, cell-based
T1 sequence (P32238 whole entry): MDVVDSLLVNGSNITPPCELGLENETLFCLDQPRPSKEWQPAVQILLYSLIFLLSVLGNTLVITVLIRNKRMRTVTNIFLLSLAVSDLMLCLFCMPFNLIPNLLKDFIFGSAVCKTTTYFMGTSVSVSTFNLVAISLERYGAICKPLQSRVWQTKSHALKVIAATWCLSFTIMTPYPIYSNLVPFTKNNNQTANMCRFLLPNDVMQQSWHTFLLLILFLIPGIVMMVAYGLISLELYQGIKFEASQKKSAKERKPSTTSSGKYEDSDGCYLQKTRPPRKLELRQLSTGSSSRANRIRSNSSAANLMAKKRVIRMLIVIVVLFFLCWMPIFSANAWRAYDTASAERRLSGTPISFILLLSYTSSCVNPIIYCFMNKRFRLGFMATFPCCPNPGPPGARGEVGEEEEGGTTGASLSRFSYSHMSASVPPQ

Liver microsome = assay: Metabolic stability in human liver microsomes assessed as CN adduct formation at 40 uM for 1 hr by LC/MS analysis; format: ADME
[5] = Fraction unbound in human plasma at 5 uM after 4.5 hrs by LC-MS/MS analysis; format: ADME, cell-free
[6] = Cmax in Swiss mouse brain at 5 mg/kg, sc; format: ADME, organism-based; parameters: dose 5 mg/kg, route subcutaneous
[7] = biological target: T1, Cholecystokinin receptor type A; assay: Antagonist activity at human wild-type CCKA receptor expressed in CHO-K1 cells assessed as CCK8-induced calcium by FDSS assay; format: functional, cell-based
Adenosine receptor A2a = Adenosine receptor A2a (Homo sapiens, UniProt P29274); assay: Agonist activity at human wild-type A2A receptor expressed in CHO-K1 cells assessed as cAMP level by HTRF assay; format: functional, cell-based
Sequence of Adenosine receptor A2a (P29274 whole entry): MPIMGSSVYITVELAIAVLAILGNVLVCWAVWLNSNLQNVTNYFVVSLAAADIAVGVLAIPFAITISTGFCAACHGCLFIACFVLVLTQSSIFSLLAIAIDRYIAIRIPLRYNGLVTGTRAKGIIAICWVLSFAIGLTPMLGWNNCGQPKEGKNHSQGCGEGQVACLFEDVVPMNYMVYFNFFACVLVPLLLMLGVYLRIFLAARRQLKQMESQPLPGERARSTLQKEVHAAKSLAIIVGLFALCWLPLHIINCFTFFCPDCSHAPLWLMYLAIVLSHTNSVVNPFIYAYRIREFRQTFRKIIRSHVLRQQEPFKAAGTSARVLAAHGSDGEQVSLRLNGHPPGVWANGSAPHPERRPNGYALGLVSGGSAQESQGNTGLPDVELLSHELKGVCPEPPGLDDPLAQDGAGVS

[8] = Fraction unbound in rat plasma at 5 uM after 4.5 hrs by LC-MS/MS analysis; format: ADME, cell-free
[9] = biological target: T2, Type-1 angiotensin II receptor (Homo sapiens, UniProt P30556); assay: Agonist activity at human wild-type AGTR1 receptor expressed in CHO-K1 cells assessed as calcium level by FDSS assay; format: functional, cell-based
T2 sequence (P30556 whole entry): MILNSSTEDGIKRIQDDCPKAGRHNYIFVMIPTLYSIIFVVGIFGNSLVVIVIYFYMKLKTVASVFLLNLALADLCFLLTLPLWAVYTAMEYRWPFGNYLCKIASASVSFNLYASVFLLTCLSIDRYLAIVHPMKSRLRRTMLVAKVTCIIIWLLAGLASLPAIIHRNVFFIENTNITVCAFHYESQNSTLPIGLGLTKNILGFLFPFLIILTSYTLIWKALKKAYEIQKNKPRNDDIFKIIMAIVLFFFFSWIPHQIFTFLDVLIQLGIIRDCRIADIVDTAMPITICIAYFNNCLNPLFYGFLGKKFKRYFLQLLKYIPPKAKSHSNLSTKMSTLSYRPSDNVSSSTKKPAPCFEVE

[10] = biological target: 5-hydroxytryptamine receptor 1B (Homo sapiens, UniProt P28222); assay: Agonist activity at human 5-HT1B receptor expressed in CHO-K1 cells assessed as cAMP level by HTRF assay; format: functional, cell-based
Sequence of 5-hydroxytryptamine receptor 1B (P28222 whole entry): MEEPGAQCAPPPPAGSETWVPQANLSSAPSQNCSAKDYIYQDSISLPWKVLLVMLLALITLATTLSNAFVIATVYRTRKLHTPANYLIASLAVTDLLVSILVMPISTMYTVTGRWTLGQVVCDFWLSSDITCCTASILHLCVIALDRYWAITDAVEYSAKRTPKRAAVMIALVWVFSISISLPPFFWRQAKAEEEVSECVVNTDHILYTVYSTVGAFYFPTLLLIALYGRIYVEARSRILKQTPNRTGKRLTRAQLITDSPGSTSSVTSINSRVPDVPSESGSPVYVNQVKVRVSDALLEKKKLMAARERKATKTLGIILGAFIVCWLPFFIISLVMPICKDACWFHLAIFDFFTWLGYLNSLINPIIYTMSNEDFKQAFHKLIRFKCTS

Cytochrome P450 2C8 = biological target: T3, Cytochrome P450 2C8 (Homo sapiens, UniProt P10632); assay: Inhibition of human CYP2C8 by LC-MS analysis; format: ADME
T3 sequence (P10632 whole entry): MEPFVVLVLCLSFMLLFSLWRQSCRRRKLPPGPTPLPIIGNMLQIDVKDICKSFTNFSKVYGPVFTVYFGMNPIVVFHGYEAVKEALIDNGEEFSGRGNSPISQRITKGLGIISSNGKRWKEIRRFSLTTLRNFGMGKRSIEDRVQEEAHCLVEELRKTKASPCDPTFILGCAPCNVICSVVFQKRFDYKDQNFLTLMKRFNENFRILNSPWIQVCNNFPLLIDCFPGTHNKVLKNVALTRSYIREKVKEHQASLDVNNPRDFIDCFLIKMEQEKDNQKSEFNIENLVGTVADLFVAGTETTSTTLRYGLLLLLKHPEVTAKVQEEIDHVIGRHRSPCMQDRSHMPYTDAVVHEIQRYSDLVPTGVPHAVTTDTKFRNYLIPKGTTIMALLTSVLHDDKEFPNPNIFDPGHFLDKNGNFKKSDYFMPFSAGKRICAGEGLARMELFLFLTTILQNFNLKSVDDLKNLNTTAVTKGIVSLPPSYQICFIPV

[11] = biological target: Kappa-type opioid receptor (Homo sapiens, UniProt P41145); assay: Agonist activity at human wild-type opioid-kappa 1 receptor expressed in CHO-K1 cells assessed as cAMP level by HTRF assay; format: functional, cell-based
Sequence of Kappa-type opioid receptor (P41145 whole entry): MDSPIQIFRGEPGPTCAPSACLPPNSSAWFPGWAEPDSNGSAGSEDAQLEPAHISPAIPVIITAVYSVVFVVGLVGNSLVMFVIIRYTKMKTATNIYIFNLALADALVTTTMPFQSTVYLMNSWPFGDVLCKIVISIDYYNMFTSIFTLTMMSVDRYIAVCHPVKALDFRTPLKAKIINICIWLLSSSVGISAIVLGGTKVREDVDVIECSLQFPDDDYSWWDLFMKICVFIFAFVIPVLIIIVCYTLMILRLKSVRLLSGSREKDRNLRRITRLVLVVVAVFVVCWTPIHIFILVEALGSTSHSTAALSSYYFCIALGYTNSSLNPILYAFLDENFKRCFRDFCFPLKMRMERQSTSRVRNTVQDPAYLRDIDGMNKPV

[12] = biological target: T4, Muscarinic acetylcholine receptor M2 (Homo sapiens, UniProt P08172); assay: Antagonist activity at human wild-type M2 receptor expressed in CHO-K1 cells assessed as acetylcholine-induced cAMP by HTRF assay; format: functional, cell-based
T4 sequence (P08172 whole entry): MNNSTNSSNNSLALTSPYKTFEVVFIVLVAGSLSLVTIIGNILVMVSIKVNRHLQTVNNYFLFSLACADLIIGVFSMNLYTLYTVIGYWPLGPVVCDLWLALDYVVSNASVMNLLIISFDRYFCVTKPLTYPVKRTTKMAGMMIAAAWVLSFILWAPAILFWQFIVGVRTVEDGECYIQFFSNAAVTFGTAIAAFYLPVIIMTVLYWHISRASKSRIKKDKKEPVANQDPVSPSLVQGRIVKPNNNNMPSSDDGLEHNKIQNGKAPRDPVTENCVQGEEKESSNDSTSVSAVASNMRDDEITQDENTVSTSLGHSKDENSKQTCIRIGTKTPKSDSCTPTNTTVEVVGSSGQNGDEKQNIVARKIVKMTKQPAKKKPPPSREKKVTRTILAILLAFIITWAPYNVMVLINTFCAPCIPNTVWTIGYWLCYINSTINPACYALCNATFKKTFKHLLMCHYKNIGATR

human MDR1 = assay: Permeability across apical to basolateral in MDCK expressing human MDR1 at 5 uM by LC-MS/MS method; format: ADME, cell-based, Canis lupus familiaris; details: dog, read-out: permeability

Sequence of D(1A) dopamine receptor (P21728 whole entry): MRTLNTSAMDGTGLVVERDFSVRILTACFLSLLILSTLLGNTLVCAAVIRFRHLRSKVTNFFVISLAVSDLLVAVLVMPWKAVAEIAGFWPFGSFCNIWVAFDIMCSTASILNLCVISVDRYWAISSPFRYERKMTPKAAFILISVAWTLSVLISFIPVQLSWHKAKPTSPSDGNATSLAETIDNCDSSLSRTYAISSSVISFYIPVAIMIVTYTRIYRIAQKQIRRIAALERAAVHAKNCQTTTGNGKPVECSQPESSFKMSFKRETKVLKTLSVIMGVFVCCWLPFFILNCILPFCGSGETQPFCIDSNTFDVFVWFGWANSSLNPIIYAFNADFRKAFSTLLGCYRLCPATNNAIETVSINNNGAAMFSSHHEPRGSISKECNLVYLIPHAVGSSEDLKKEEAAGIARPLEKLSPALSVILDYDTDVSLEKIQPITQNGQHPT
Sequence of Cytochrome P450 2C19 (P33261 whole entry): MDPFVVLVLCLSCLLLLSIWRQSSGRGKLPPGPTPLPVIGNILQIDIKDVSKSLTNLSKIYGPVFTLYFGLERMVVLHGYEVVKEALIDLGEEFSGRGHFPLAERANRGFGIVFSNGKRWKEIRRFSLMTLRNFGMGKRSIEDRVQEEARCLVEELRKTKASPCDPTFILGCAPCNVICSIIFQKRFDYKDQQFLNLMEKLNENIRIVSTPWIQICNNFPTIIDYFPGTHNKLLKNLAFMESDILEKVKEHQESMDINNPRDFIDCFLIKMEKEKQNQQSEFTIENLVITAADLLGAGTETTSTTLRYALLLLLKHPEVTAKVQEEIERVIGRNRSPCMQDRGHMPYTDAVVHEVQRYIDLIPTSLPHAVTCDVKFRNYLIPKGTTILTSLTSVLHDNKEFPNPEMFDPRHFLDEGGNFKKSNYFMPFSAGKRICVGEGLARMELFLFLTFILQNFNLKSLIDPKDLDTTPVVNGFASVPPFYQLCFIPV

Question: With `CB1C=Cc2cccc(OCC(O)CNC(C)C)c2N1` (stereo not drawn) as the molecule, how does the EC50 (D(1A) dopamine receptor) read?
Answer: The EC50 was > 5.01 µM.

Question: What about the IC50 (Cytochrome P450 2C19) of the same molecule?
Answer: Its IC50 is > 10 µM.

Question: And the fraction unbound at 4.5 h, 5 µM [1]?
Answer: The fraction unbound at 4.5 h, 5 µM was 0.074.

Question: And the EC50 [2]?
Answer: The EC50 was > 5.01 µM.

Question: What about the IC50 [3] of the same molecule?
Answer: The IC50 was > 5.01 µM.

Question: And the IC50 (Mu-type opioid receptor)?
Answer: The IC50 was > 5.01 µM.

Question: What about the EC50 [4] of the same molecule?
Answer: Its EC50 is > 5.01 µM.

Question: What about the Stability (Liver microsome) of the same molecule?
Answer: Its Stability is “Stable”.

Question: What about the fraction unbound at 4.5 h, 5 µM [5] of the same molecule?
Answer: Its fraction unbound at 4.5 h, 5 µM is 0.179.

Question: And the Cmax [6]?
Answer: Its Cmax is 7 µM.

Question: And the IC50 [7]?
Answer: Its IC50 is > 5.01 µM.

Question: And the EC50 (Adenosine receptor A2a)?
Answer: Its EC50 is > 5.01 µM.

Question: And the fraction unbound at 4.5 h, 5 µM [8]?
Answer: The fraction unbound at 4.5 h, 5 µM was 0.096.

Question: What about the EC50 [9] of the same molecule?
Answer: Its EC50 is > 5.01 µM.

Question: What about the EC50 [10] of the same molecule?
Answer: Its EC50 is > 5.01 µM.

Question: And the IC50 (Cytochrome P450 2C8)?
Answer: Its IC50 is > 10 µM.

Question: What about the EC50 [11] of the same molecule?
Answer: The EC50 was > 5.01 µM.

Question: What about the IC50 [12] of the same molecule?
Answer: The IC50 was > 5.01 µM.

Question: What about the Papp A→B at 5 µM (human MDR1) of the same molecule?
Answer: Its Papp A→B at 5 µM is 13 nm/s.

Question: For `CB1C=Cc2c(cccc2OCC(O)CN(C)C)N1` (stereo not drawn), which EC50 (D(1A) dopamine receptor) is on record?
Answer: Its EC50 is > 5.01 µM.

Question: What about the IC50 (Cytochrome P450 2C19) of the same molecule?
Answer: The IC50 was > 10 µM.

Question: What about the fraction unbound at 4.5 h, 5 µM [1] of the same molecule?
Answer: Its fraction unbound at 4.5 h, 5 µM is 0.21.

Question: And the EC50 [2]?
Answer: The EC50 was > 5.01 µM.

Question: And the IC50 [3]?
Answer: The IC50 was > 5.01 µM.

Question: And the IC50 (Mu-type opioid receptor)?
Answer: Its IC50 is > 5.01 µM.

Question: And the EC50 [4]?
Answer: The EC50 was > 5.01 µM.

Question: What about the Stability (Liver microsome) of the same molecule?
Answer: Its Stability is “Stable”.

Question: And the fraction unbound at 4.5 h, 5 µM [5]?
Answer: The fraction unbound at 4.5 h, 5 µM was 0.367.

Question: What about the Cmax [6] of the same molecule?
Answer: The Cmax was 62 µM.

Question: And the IC50 [7]?
Answer: The IC50 was > 5.01 µM.

Question: What about the EC50 (Adenosine receptor A2a) of the same molecule?
Answer: Its EC50 is > 5.01 µM.

Question: And the fraction unbound at 4.5 h, 5 µM [8]?
Answer: Its fraction unbound at 4.5 h, 5 µM is 0.29.

Question: And the EC50 [9]?
Answer: The EC50 was > 5.01 µM.

Question: What about the EC50 [10] of the same molecule?
Answer: Its EC50 is > 5.01 µM.

Question: What about the IC50 (Cytochrome P450 2C8) of the same molecule?
Answer: Its IC50 is > 10 µM.

Question: What about the EC50 [11] of the same molecule?
Answer: Its EC50 is > 5.01 µM.

Question: And the IC50 [12]?
Answer: Its IC50 is > 5.01 µM.

Question: What about the Papp A→B at 5 µM (human MDR1) of the same molecule?
Answer: Its Papp A→B at 5 µM is 23 nm/s.
